US9278954B2, “Pyrrolidine derivatives, pharmaceutical compositions and uses thereof” (Boehringer Ingelheim International GmbH, priority 2013, dated 2016)

Target: human ACC2 (Homo sapiens (Human), UniProt O00763)
Assay: ACC2 assay (spectrophotometric 384 well assay, NADH-linked kinetic method)
Type: biochemical
Conditions: hACC2 construct lacking the 128 N-terminal amino acids; 25° C., 340 nm over 15 minutes
Description: Spectrophotometric 384 Well Assay
Malonyl CoA formation by acetyl CoA carboxylases is stoichometrically linked to the consumption of ATP. ACC2 activity is measured in a NADH-linked kinetic method measuring ADP generated during the ACC reaction using a coupled lactate dehydrogenase/pyruvate kinase reaction.
The protein is then expressed in insect cells using a baculoviral expression system. Protein purification is performed by anion exchange.
All compounds are dissolved in dimethyl sulfoxide (DMSO) to a concentration of 10 mM.
The enzymatic reaction is then started by addition of a mixture of NADH, acetyl
Coenzyme A (both […].) and ATP (500 uM f.c.). The decrease of the optical density (slope S) is then determined at 25° C. at a wavelength of 340 nm over 15 minutes in a spectrophotometric reader.
Each assay microtiter plate contains wells with vehicle instead of compound as controls for the non-inhibited enzyme (100% CTL; ‘HIGH’) and wells without acetyl-CoA as controls for non-specific NADH degradation (0% CTL; ‘LOW’).

Chain of human ACC2 (O00763 129-2458): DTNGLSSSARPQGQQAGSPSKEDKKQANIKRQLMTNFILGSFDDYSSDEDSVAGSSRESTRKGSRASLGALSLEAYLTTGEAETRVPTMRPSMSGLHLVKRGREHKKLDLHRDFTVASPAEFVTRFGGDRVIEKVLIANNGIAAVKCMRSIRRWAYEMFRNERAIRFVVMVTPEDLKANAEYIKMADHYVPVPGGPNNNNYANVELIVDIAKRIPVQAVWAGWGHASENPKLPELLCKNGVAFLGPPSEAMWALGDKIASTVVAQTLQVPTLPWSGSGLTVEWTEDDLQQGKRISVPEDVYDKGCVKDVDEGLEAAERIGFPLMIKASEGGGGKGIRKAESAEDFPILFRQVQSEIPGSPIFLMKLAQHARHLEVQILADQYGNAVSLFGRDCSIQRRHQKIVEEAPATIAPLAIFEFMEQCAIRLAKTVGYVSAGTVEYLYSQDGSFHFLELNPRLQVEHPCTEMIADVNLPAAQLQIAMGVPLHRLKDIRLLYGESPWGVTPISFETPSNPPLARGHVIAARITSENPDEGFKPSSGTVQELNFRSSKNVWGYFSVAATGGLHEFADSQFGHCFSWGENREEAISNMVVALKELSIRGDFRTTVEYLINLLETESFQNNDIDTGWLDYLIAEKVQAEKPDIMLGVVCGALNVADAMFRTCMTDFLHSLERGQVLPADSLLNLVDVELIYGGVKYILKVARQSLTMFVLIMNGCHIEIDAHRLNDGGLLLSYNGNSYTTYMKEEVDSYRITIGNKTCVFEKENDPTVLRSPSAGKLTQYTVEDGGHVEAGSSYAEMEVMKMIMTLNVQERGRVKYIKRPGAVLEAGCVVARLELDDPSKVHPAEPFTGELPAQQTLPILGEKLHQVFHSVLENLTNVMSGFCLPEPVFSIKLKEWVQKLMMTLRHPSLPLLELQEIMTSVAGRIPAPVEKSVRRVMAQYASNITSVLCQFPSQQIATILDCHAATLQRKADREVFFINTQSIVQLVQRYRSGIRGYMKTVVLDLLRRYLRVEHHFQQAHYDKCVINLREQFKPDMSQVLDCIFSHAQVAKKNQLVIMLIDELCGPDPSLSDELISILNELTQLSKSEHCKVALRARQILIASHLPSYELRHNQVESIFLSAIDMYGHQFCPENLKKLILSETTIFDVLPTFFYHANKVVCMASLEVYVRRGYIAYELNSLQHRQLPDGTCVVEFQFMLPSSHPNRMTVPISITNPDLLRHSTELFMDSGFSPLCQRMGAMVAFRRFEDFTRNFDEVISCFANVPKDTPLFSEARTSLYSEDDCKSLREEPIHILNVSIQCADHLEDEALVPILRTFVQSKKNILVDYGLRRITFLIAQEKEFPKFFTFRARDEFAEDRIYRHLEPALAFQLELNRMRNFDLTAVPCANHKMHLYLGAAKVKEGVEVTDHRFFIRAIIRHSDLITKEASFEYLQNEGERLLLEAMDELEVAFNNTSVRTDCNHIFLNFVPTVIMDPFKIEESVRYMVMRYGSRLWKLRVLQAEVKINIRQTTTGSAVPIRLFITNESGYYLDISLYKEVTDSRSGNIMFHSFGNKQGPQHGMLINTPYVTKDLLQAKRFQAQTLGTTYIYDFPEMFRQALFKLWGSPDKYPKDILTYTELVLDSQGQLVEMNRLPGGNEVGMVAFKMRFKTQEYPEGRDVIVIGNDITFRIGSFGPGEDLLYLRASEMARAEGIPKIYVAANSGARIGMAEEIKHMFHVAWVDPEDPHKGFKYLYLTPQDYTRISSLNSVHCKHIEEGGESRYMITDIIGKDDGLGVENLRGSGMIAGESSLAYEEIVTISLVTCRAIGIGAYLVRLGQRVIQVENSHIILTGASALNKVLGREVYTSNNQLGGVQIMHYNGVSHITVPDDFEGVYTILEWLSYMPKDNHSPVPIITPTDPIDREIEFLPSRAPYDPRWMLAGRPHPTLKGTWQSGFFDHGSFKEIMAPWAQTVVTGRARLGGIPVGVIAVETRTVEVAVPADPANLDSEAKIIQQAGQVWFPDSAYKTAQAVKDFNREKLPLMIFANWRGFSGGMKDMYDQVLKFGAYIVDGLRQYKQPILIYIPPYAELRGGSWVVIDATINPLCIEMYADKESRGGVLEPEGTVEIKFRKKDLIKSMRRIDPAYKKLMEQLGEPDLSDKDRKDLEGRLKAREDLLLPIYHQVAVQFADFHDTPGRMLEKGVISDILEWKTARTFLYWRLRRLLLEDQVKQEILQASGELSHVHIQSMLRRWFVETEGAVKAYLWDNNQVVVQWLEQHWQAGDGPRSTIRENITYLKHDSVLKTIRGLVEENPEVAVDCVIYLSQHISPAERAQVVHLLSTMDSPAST

IC50 | Structure (SMILES)
626 nM | CCCNc1nccc(N2CC[C@@H](Oc3ccc(C(C)C(=O)NC4COC4)cc3)C2)c1F (stereo partly shown) [Example 1.61]
1380 nM | CC(=O)Nc1nc(CNC(=O)C(C)c2ccc(O[C@@H]3CCN(c4ncnc(OCC(C)(F)F)c4F)C3)cc2)cs1 (stereo partly shown) [Example 1.87]
2920 nM | CC(C(=O)NC1CCOCC1)c1ccc(O[C@@H]2CCN(c3ncnc(OCC(C)(C)O)c3Cl)C2)cc1 (stereo partly shown) [Example 1.91]
749 nM | CC(C(=O)Nc1cncnc1)c1ccc(O[C@@H]2CCN(c3ccc(OCC4CC4(F)F)cn3)C2)cc1 (stereo partly shown) [Example 1.70]
329 nM | CCNC(=O)C(C)c1ccc(O[C@@H]2CCN(c3ccc4c(c3)OCCCO4)C2)cc1 (stereo partly shown) [Example 7.10]
813 nM | CC(C(=O)NCC(F)(F)F)c1ccc(O[C@@H]2CCN(c3ncnc(OCC(C)(C)O)c3Cl)C2)cc1 (stereo partly shown) [Example 1.74]
188 nM | CCCN(C)c1nccc(N2CC[C@@H](Oc3ccc(C(C)C(=O)NCC)cc3)C2)n1 (stereo partly shown) [Example 2.3]
739 nM | CCCNc1ncnc(N2CC[C@@H](Oc3ccc(C(C)C(=O)NC4CC4C)cc3)C2)c1F (stereo partly shown) [Example 3.9]
1220 nM | CC(C(=O)NCC1COC1)c1ccc(O[C@@H]2CCN(c3ncnc(OCC(C)(C)O)c3Cl)C2)cc1 (stereo partly shown) [Example 1.85]
473 nM | CCNC(=O)C(C)c1ccc(O[C@@H]2CCN(c3ccc(OCC4CC4)nc3)C2)cc1 (stereo partly shown) [Example 7.24]
381 nM | C=CCNC(=O)C(C)c1ccc(O[C@@H]2CCN(c3ccc(OCC4CC4(F)F)cn3)C2)cc1 (stereo partly shown) [Example 1.31]
441 nM | C#CCNC(=O)C(C)c1ccc(O[C@@H]2CCN(c3ncnc(OCC(C)(F)F)c3F)C2)cc1 (stereo partly shown) [Example 1.42]
346 nM | CNC(=O)C(C)c1ccc(O[C@@H]2CCN(c3ccc(OCC4CC4(F)F)cn3)C2)cc1 (stereo partly shown) [Example 1.28]
190 nM | CCNC(=O)C(C)c1ccc(O[C@@H]2CCN(c3ccc(OCC4CC4(F)F)cn3)C2)cc1 (stereo partly shown) [Example 7.3]
1760 nM | CCNC(=O)C(C)c1ccc(O[C@@H]2CCN(c3ccnc(C4CC4)n3)C2)cc1 (stereo partly drawn) [Example 5, 2-(4-[1-(2-Cyclopropyl-pyrimidin-4-yl)-(R)-pyrrolidin-3-yloxy]-phenyl)-N-ethyl-propionamide]
538 nM | C=C(C)CNC(=O)C(C)c1ccc(O[C@@H]2CCN(c3ncnc(OCC(C)(F)F)c3F)C2)cc1 (stereo partly shown) [Example 1.53]
104 nM | CCNC(=O)C(C)c1ccc(O[C@@H]2CCN(c3ncc(OC4CCCC4)cc3F)C2)cc1 (stereo partly drawn) [Example 8.1, 2-(4-[1-(5-Cyclopentyloxy-3-fluoro-pyridin-2-yl)-(R)-pyrrolidin-3-yloxy]-phenyl)-N-ethyl-propionamide]
443 nM | CC(C(=O)NCC(F)F)c1ccc(O[C@@H]2CCN(c3nc(N(C)C)ncc3F)C2)cc1 (stereo partly shown) [Example 1.43]
543 nM | CCNC(=O)C(C)c1ccc(O[C@@H]2CCN(c3ncc(OC(C)C)cc3F)C2)cc1 (stereo partly shown) [Example 8.3]
318 nM | CC(C(=O)Nc1cccnc1)c1ccc(O[C@@H]2CCN(c3ncnc(OCC(C)(C)O)c3Cl)C2)cc1 (stereo partly shown) [Example 3.5]
500 nM | CCNC(=O)C(C)c1ccc(O[C@@H]2CCN(c3nc(C)ccc3F)C2)cc1 (stereo partly shown) [Example 7.25]
410 nM | CCNC(=O)C(C)c1ccc(O[C@@H]2CCN(c3cccc(C)c3)C2)cc1 (stereo partly shown) [Example 7.16]
378 nM | CCNC(=O)C(C)c1ccc(O[C@@H]2CCN(c3ncnc(OCC(C)(F)F)c3F)C2)cc1 (stereo partly shown) [Example 1.30]
266 nM | C#CCNC(=O)C(C)c1ccc(O[C@@H]2CCN(c3ccnc(NCCC)c3F)C2)cc1 (stereo partly shown) [Example 1.16]
408 nM | CCNC(=O)C(C)c1ccc(O[C@@H]2CCN(c3cccc(C(F)F)n3)C2)cc1 (stereo partly shown) [Example 7.15]
1780 nM | CC(C(=O)NC[C@@H](C)O)c1ccc(O[C@@H]2CCN(c3ccc(OCC4CC4(F)F)cn3)C2)cc1 (stereo partly shown) [Example 1.88]
229 nM | CCNC(=O)C(C)c1ccc(O[C@@H]2CCN(c3ccc(F)c(C(F)(F)F)c3)C2)cc1 (stereo partly shown) [Example 7.6]
61 nM | CCCNc1nccc(N2CC[C@@H](Oc3ccc(C(C)C(=O)NC4CC4)cc3)C2)c1F (stereo partly shown) [Example 1.2]

IC50 | Structure (SMILES)
910 nM | CCNC(=O)C(C)c1ccc(O[C@@H]2CCN(c3ccc(OC4CC4)cn3)C2)cc1 (stereo partly shown) [Example 8.4]
622 nM | CCNC(=O)C(C)c1ccc(O[C@@H]2CCN(c3ncnc(OCC(C)(C)O)c3F)C2)cc1 (stereo partly shown) [Example 3.8]
445 nM | CCNC(=O)C(C)c1ccc(O[C@@H]2CCN(c3cccc(N(C)C)n3)C2)cc1 (stereo partly shown) [Example 7.20]
463 nM | C=CCNC(=O)C(C)c1ccc(O[C@@H]2CCN(c3ncnc(OCC(C)(F)F)c3F)C2)cc1 (stereo partly shown) [Example 1.45]
512 nM | CC(C(=O)NCCF)c1ccc(O[C@@H]2CCN(c3nc(N(C)C)ncc3F)C2)cc1 (stereo partly shown) [Example 1.51]
579 nM | CNC(=O)C(C)c1ccc(O[C@@H]2CCN(c3nc(N(C)C)ncc3F)C2)cc1 (stereo partly shown) [Example 1.56]
492 nM | CC(C)NC(=O)C(C)c1ccc(O[C@@H]2CCN(c3ncnc(OCC(C)(C)O)c3Cl)C2)cc1 (stereo partly shown) [Example 1.49]
311 nM | CC(C(=O)NC1CC1C)c1ccc(O[C@@H]2CCN(c3ncnc(OCC(C)(F)F)c3F)C2)cc1 (stereo partly shown) [Example 1.22]
639 nM | CCNC(=O)C(C)c1ccc(O[C@@H]2CCN(c3ccc(F)c(Cl)c3)C2)cc1 (stereo partly shown) [Example 7.31]
220 nM | CC(C(=O)NC1CC1C)c1ccc(O[C@@H]2CCN(c3ccc(OCC4CC4(F)F)cn3)C2)cc1 (stereo partly shown) [Example 1.12]
472 nM | CC[C@@H](C)NC(=O)C(C)c1ccc(O[C@@H]2CCN(c3ncnc(OCC(C)(C)O)c3Cl)C2)cc1 (stereo partly shown) [Example 1.47]
429 nM | CCNC(=O)C(C)c1ccc(O[C@@H]2CCN(c3ccc(OCC4CCC4)cc3)C2)cc1 (stereo partly shown) [Example 7.18]
613 nM | CC(C(=O)NCC(F)F)c1ccc(O[C@@H]2CCN(c3ncnc(OCC(C)(C)O)c3F)C2)cc1 (stereo partly shown) [Example 3.7]
319 nM | CCCNc1nccc(N2CC[C@@H](Oc3ccc(C(C)C(=O)NC(C)C)cc3)C2)c1F (stereo partly shown) [Example 1.24]
2230 nM | C#CC(C)NC(=O)C(C)c1ccc(O[C@@H]2CCN(c3ccnc(NCCC)c3F)C2)cc1 (stereo partly shown) [Example 1.90]
455 nM | CCNC(=O)C(C)c1ccc(O[C@@H]2CCN(c3ccc(OC(C)C)cc3)C2)cc1 (stereo partly shown) [Example 7.22]
437 nM | CCCNC(=O)C(C)c1ccc(O[C@@H]2CCN(c3ncnc(OCC(C)(C)O)c3Cl)C2)cc1 (stereo partly shown) [Example 1.40]
244 nM | CC(C(=O)NC1CC1C)c1ccc(O[C@@H]2CCN(c3ncnc(OCC(C)(F)F)c3F)C2)cc1 (stereo partly shown) [Example 1.14]
1030 nM | CCCNc1ncnc(N2CC[C@@H](Oc3ccc(C(C)C(=O)NCC)cc3)C2)c1F (stereo partly shown) [Example 3.12]
547 nM | CC(C(=O)NCCF)c1ccc(O[C@@H]2CCN(c3ncnc(OCC(C)(C)O)c3Cl)C2)cc1 (stereo partly shown) [Example 1.54]
470 nM | CC(C(=O)NCC(F)F)c1ccc(O[C@@H]2CCN(c3ncnc(OCC(C)(F)F)c3F)C2)cc1 (stereo partly shown) [Example 1.46]
779 nM | C=CCCNC(=O)C(C)c1ccc(O[C@@H]2CCN(c3ccnc(NCCC)c3F)C2)cc1 (stereo partly shown) [Example 1.71]
798 nM | CCN(C)C(=O)C(C)c1ccc(O[C@@H]2CCN(c3ccc(OCC4CC4(F)F)cn3)C2)cc1 (stereo partly shown) [Example 1.73]
95 nM | CCNC(=O)C(C)c1ccc(O[C@@H]2CCN(c3ccnc(N(CC)CC)n3)C2)cc1 (stereo partly drawn) [Example 2.1, (R)-2-(4-[1-(2-Diethylamino-pyrimidin-4-yl)-pyrrolidin-3-lyoxy]-phenyl)-N-ethyl-propionamide]
288 nM | CCNC(=O)C(C)c1ccc(O[C@@H]2CCN(c3ccc(OCC)cc3)C2)cc1 (stereo partly drawn) [Example 4.1, 2-(4-[1-(4-Ethoxyl-phenyl)-(R)-pyrrolidin-3-yloxy]-phenyl)-N-ethyl-propionamide]
365 nM | CCNC(=O)C(C)c1ccc(O[C@@H]2CCN(c3cc(C(F)(F)F)ccc3C)C2)cc1 (stereo partly shown) [Example 7.11]
630 nM | CCNC(=O)C(C)c1ccc(O[C@@H]2CCN(c3cccc(OC(C)CC)c3)C2)cc1 (stereo partly shown) [Example 7.30]

Structure (SMILES) | IC50
CC(C(=O)NC1CC1C)c1ccc(O[C@@H]2CCN(c3nc(N(C)C)ncc3F)C2)cc1 (stereo partly shown) [Example 1.9] | 195 nM
CC(C(=O)NC1CC1C)c1ccc(O[C@@H]2CCN(c3ncnc(OCC(C)(C)O)c3Cl)C2)cc1 (single isomer, unassigned) [6.4 isomer 2] | 681 nM
CCNC(=O)C(C)c1ccc(O[C@@H]2CCN(c3nc(N(C)C)ncc3F)C2)cc1 (single isomer, unassigned) [6.6 isomer 1] | 126 nM
CC(C(=O)NCC(F)F)c1ccc(O[C@@H]2CCN(c3ncnc(OCC(C)(C)O)c3Cl)C2)cc1 (stereo partly shown) [Example 1.36] | 413 nM
CCNC(=O)C(C)c1ccc(O[C@@H]2CCN(c3nc(N(C)C)ncc3F)C2)cc1 (stereo partly shown) [Example 1.27] | 345 nM
CCNC(=O)C(C)c1ccc(O[C@@H]2CCN(c3ncnc(OCC(C)(C)O)c3Cl)C2)cc1 (single isomer, unassigned) [6.3 isomer 1] | 95 nM
CC(C(=O)NCC(F)F)c1ccc(O[C@@H]2CCN(c3ncnc(OCC(C)(C)O)c3Cl)C2)cc1 (single isomer, unassigned) [6.5 isomer 2] | 872 nM
CC(C(=O)NCC(F)F)c1ccc(O[C@@H]2CCN(c3ncnc(OCC(C)(C)O)c3Cl)C2)cc1 (single isomer, unassigned) [6.5 isomer 1] | 135 nM
CC(C(=O)NC1CC1C)c1ccc(O[C@@H]2CCN(c3nc(N(C)C)ncc3F)C2)cc1 (single isomer, unassigned) [6.2 isomer 4] | 1480 nM
